Measurements as given in PubChem BioAssay AID330 (DTP/NCI, 2004).
“And” between values parts separate entries of the source, which are not always exact repeats. Equal values may be shown once. Inconclusive results and toxic doses are left out.

System: P388 leukemia ip, CD2F1 mice, survival T/C
Test: NCI In Vivo Anticancer Drug Screen. Data for tumor model P388 Leukemia (intraperitoneal) in CD2F1 (CDF1) mice
Conditions: endpoint: median survival time, higher = longer survival
Method in brief: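 Mice carrying the transplanted tumor received test compound or vehicle. Survival was recorded in each group, and the value is the treated-group measurement divided by that of the vehicle-treated control group.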

[1] = dose: 50.0 mg/kg/injection, schedule: Q01DX009 (ip), vehicle: saline with Tween-80
[2] = dose: 100.0 mg/kg/injection, schedule: Q01DX009 (ip), vehicle: saline with Tween-80
[3] = dose: 200.0 mg/kg/injection, schedule: Q01DX009 (ip), vehicle: saline with Tween-80
[4] = dose: 50.0 mg/kg/injection, schedule: Q01DX005 (ip), vehicle: saline with Tween-80
[5] = dose: 100.0 mg/kg/injection, schedule: Q01DX005 (ip), vehicle: saline with Tween-80

CC1(C)N=C(N)N=C(N)N1c1ccc(CCCCc2ccc(S(=O)(=O)F)cc2Cl)c(Cl)c1
T/C (dose: 0.13 mg/kg/injection, schedule: Q03HX016 (ip), vehicle: other): 107 % of control | T/C (dose: 0.25 mg/kg/injection, schedule: Q03HX016 (ip), vehicle: other): 116 % of control | T/C (dose: 0.5 mg/kg/injection, schedule: Q03HX016 (ip), vehicle: other): 124 % of control | T/C (dose: 1.0 mg/kg/injection, schedule: Q01DX005 (ip), vehicle: other): 111 % of control | T/C (dose: 1.98 mg/kg/injection, schedule: Q01DX009 (ip), vehicle: saline with Tween-80): 165 % of control | T/C (dose: 2.0 mg/kg/injection, schedule: Q01DX005 (ip), vehicle: other): 120 % of control | T/C (dose: 2.0 mg/kg/injection, schedule: Q04DX002 (ip), vehicle: other): 109 % of control | T/C (dose: 2.82 mg/kg/injection, schedule: Q01DX009 (ip), vehicle: saline with Tween-80): 168 % of control | T/C (dose: 3.89 mg/kg/injection, schedule: Q01DX009 (ip), vehicle: Klucel (hydroxypropylcellulose) (HPC)): 152 % of control and 163 % of control | T/C (dose: 4.0 mg/kg/injection, schedule: Q01DX005 (ip), vehicle: other): 121 % of control | T/C (dose: 4.0 mg/kg/injection, schedule: Q04DX002 (ip), vehicle: other): 118 % of control | T/C (dose: 4.03 mg/kg/injection, schedule: Q01DX009 (ip), vehicle: saline with Tween-80): 176 % of control | T/C (dose: 5.76 mg/kg/injection, schedule: Q01DX009 (ip), vehicle: saline with Tween-80): 176 % of control | T/C (dose: 6.25 mg/kg/injection, schedule: Q01DX009 (ip), vehicle: distilled water + Tween-80): 155 % of control | T/C (dose: 6.25 mg/kg/injection, schedule: Q01DX009 (ip), vehicle: saline with Tween-80): 163 % of control | T/C (dose: 6.48 mg/kg/injection, schedule: Q01DX009 (ip), vehicle: Klucel (hydroxypropylcellulose) (HPC)): 164 % of control | T/C (dose: 8.0 mg/kg/injection, schedule: Q01DX005 (ip), vehicle: other): 119 % of control | T/C (dose: 8.0 mg/kg/injection, schedule: Q04DX002 (ip), vehicle: other): 116 % of control | T/C (dose: 8.23 mg/kg/injection, schedule: Q01DX009 (ip), vehicle: saline with Tween-80): 197 % of control | T/C (dose: 8.64 mg/kg/injection, schedule: Q01DX005 (ip), vehicle: Klucel (hydroxypropylcellulose) (HPC)): 156 % of control | T/C (dose: 10.8 mg/kg/injection, schedule: Q01DX009 (ip), vehicle: Klucel (hydroxypropylcellulose) (HPC)): 166 % of control and 182 % of control | T/C (dose: 11.76 mg/kg/injection, schedule: Q01DX009 (ip), vehicle: saline with Tween-80): 212 % of control | T/C (dose: 12.5 mg/kg/injection, schedule: Q01DX009 (ip), vehicle: distilled water + Tween-80): 155 % of control | T/C (dose: 16.0 mg/kg/injection, schedule: Q01DX005 (ip), vehicle: other): 118 % of control | T/C (dose: 16.0 mg/kg/injection, schedule: Q04DX002 (ip), vehicle: other): 106 % of control | T/C (dose: 16.8 mg/kg/injection, schedule: Q01DX009 (ip), vehicle: other): 100 % of control | T/C (dose: 16.8 mg/kg/injection, schedule: Q01DX009 (ip), vehicle: saline with Tween-80): 250 % of control | T/C (dose: 18.0 mg/kg/injection, schedule: Q01DX009 (ip), vehicle: Klucel (hydroxypropylcellulose) (HPC)): 163 % of control and 214 % of control | T/C (dose: 24.0 mg/kg/injection, schedule: Q01DX005 (ip), vehicle: Klucel (hydroxypropylcellulose) (HPC)): 164 % of control | T/C (dose: 24.0 mg/kg/injection, schedule: Q01DX009 (ip), vehicle: saline with Tween-80): 256 % of control | T/C (dose: 25.0 mg/kg/injection, schedule: Q01DX009 (ip), vehicle: distilled water + Tween-80): 160 % of control | T/C (dose: 25.0 mg/kg/injection, schedule: Q01DX009 (oral), vehicle: saline with Tween-80): 102 % of control | T/C (dose: 30.0 mg/kg/injection, schedule: Q01DX009 (ip), vehicle: Klucel (hydroxypropylcellulose) (HPC)): 163 % of control and 236 % of control | T/C (dose: 32.0 mg/kg/injection, schedule: Q04DX002 (ip), vehicle: other): 111 % of control | T/C (dose: 34.28 mg/kg/injection, schedule: Q01DX009 (ip), vehicle: saline with Tween-80): 228 % of control | T/C (dose: 40.0 mg/kg/injection, schedule: Q01DX005 (ip), vehicle: Klucel (hydroxypropylcellulose) (HPC)): 172 % of control | T/C (dose: 50.0 mg/kg/injection, schedule: Q01DX009 (ip), vehicle: Klucel (hydroxypropylcellulose) (HPC)): 87 % of control | T/C (dose: 50.0 mg/kg/injection, schedule: Q01DX009 (oral), vehicle: saline with Tween-80): 102 % of control | T/C (dose: 75.0 mg/kg/injection, schedule: Q01DX009 (ip), vehicle: saline with Tween-80): 195 % of control | T/C (dose: 89.0 mg/kg/injection, schedule: Q04DX003 (ip), vehicle: saline with Tween-80): 173 % of control | T/C (dose: 100.0 mg/kg/injection, schedule: Q01DX009 (oral), vehicle: saline with Tween-80): 107 % of control | T/C (dose: 110.0 mg/kg/injection, schedule: Q01DX009 (ip), vehicle: saline with Tween-80): 86 % of control | T/C (dose: 133.0 mg/kg/injection, schedule: Q04DX003 (ip), vehicle: saline with Tween-80): 188 % of control | T/C (dose: 200.0 mg/kg/injection, schedule: Q01DX009 (oral), vehicle: saline with Tween-80): 105 % of control | T/C (dose: 200.0 mg/kg/injection, schedule: Q04DX003 (ip), vehicle: saline with Tween-80): 307 % of control | T/C (dose: 400.0 mg/kg/injection, schedule: Q01DX009 (oral), vehicle: saline with Tween-80): 99 % of control

CCN(CC)c1nc(N(CC)CC)nc(N(CC)CC)n1
T/C (dose: 25.0 mg/kg/injection, schedule: Q01DX009 (ip), vehicle: saline with Tween-80): 102 % of control | T/C [1]: 104 % of control | T/C [2]: 104 % of control | T/C [3]: 104 % of control

CC1OC(OC23C(=O)CC(C)(O)CC2(O)C=CC2=C3C(=O)c3ccc(C4CC(OC5CCC(OC6CC(O)C(O)C(C)O6)C(C)O5)C(O)C(C)O4)c(O)c3C2=O)CCC1O (stereo not given)
T/C (dose: 1.0 mg/kg/injection, schedule: Q01DX005 (ip), vehicle: DMSO): 104 % of control | T/C (dose: 2.0 mg/kg/injection, schedule: Q01DX005 (ip), vehicle: DMSO): 105 % of control | T/C (dose: 4.0 mg/kg/injection, schedule: Q01DX005 (ip), vehicle: DMSO): 99 % of control | T/C (dose: 6.25 mg/kg/injection, schedule: Q04DX003 (ip), vehicle: Klucel (hydroxypropylcellulose) (HPC)): 100 % of control | T/C (dose: 12.5 mg/kg/injection, schedule: Q04DX003 (ip), vehicle: Klucel (hydroxypropylcellulose) (HPC)): 91 % of control | T/C (dose: 25.0 mg/kg/injection, schedule: Q04DX003 (ip), vehicle: Klucel (hydroxypropylcellulose) (HPC)): 100 % of control

Cc1cc(NCCCCN2CCOCC2)nc2ccc3ccccc3c12
T/C [4]: 101 % of control | T/C [5]: 105 % of control

Nc1ccn(COC(CO)CO)c(=O)n1
T/C (dose: 100.0 mg/kg/injection, schedule: Q04DX002 (ip), vehicle: saline): 97 % of control | T/C (dose: 200.0 mg/kg/injection, schedule: Q04DX002 (ip), vehicle: saline): 98 % of control | T/C (dose: 400.0 mg/kg/injection, schedule: Q04DX002 (ip), vehicle: saline): 103 % of control

CCCCC(C)(CCN)CCCC
T/C (dose: 25.0 mg/kg/injection, schedule: Q01DX009 (ip), vehicle: suspension in saline): 103 % of control | T/C (dose: 50.0 mg/kg/injection, schedule: Q01DX009 (ip), vehicle: suspension in saline): 105 % of control | T/C (dose: 100.0 mg/kg/injection, schedule: Q01DX009 (ip), vehicle: suspension in saline): 106 % of control

Cc1ccc2oc(C(=O)Nc3nnc(-c4ccccc4)s3)cc(=O)c2c1
T/C [4]: 96 % of control | T/C [5]: 94 % of control | T/C (dose: 200.0 mg/kg/injection, schedule: Q01DX005 (ip), vehicle: saline with Tween-80): 94 % of control

CCOC(=O)c1csc(C2OC(COC(=O)c3ccccc3)C(OC(=O)c3ccccc3)C2OC(=O)c2ccccc2)n1 (stereo not given)
T/C [1]: 96 % of control | T/C [2]: 95 % of control | T/C [3]: 93 % of control

CC1C/C=C\COC(=O)CC(C)(C)CC1=O (stereo not given)
T/C (dose: 100.0 mg/kg/injection, schedule: Q04DX003 (ip), vehicle: saline): 99 % of control | T/C (dose: 200.0 mg/kg/injection, schedule: Q04DX003 (ip), vehicle: saline): 99 % of control | T/C (dose: 400.0 mg/kg/injection, schedule: Q04DX003 (ip), vehicle: saline): 95 % of control

CCOC(=O)C1(C(=O)OCC)N=C(c2ccccc2)C=C1c1ccccc1
T/C [1]: 100 % of control | T/C [2]: 98 % of control | T/C [3]: 94 % of control

CC1=CC(C)=NC(N)=NN1
T/C (dose: 25.0 mg/kg/injection, schedule: Q01DX009 (ip), vehicle: water): 99 % of control | T/C (dose: 50.0 mg/kg/injection, schedule: Q01DX009 (ip), vehicle: water): 108 % of control | T/C (dose: 100.0 mg/kg/injection, schedule: Q01DX009 (ip), vehicle: water): 103 % of control | T/C (dose: 200.0 mg/kg/injection, schedule: Q01DX009 (ip), vehicle: water): 119 % of control
